We go through 22 compounds from PMC3089953 (Bioorganic & medicinal chemistry letters, 2009).

SMILES strings stand for the structures. “Also recorded” adds a separate entry of the source.

One data set deals with adenosine deaminase. The experiment in a line: Conversion by purified adenosine deaminase. To be noted: pH 7.4, 25 °C; for Conversion to AZG by adenosine deaminase: 0.2 units per mL enzyme, 120 min, 50 μM nucleoside.
For data set [1], the system named is PBM cells. Nature of the data set: Cytotoxicity in PBM cells. The data set is classed as cell-based. To be noted: human.
For data set [2] the following is noted: cited from earlier work.
For data set [3], the system named is PBM cells. Nature of the data set: Intracellular metabolism in PBM cells. The data set is classed as in vitro ADME, human. To be noted: 50 μM for 4 h at 37 °C, LC/MS/MS.
Data set [4] is described as follows: Cytotoxicity in Vero cells. It is filed as cell-based, African green monkey. As to conditions: African green monkey, Vero cells (kidney epithelial cells).
A short description of a further data set: in vitro. It is filed as cell-based. As to conditions: human, CEM cells (T-cell-derived cell line).
Another data set concerns Vero cells. Nature of the data set: Cytotoxicity in Vero cells. It is filed as cell-based, African green monkey. As to conditions: Vero cells.
A further data set relates to CEM cells. The experiment in a line: in vitro. To be noted: CEM cells. The data set is classed as cell-based.
In a further data set the test system is HIV-1LAI. The experiment in a line: Anti-HIV activity against HIV-1LAI in human PBM cells. It is filed as cell-based.
The next data set relates to PBM, CEM, and Vero cells. Nature of the data set: Cytotoxicity in PBM, CEM and Vero cells. The data set is classed as cell-based.

Take `Nc1ncnc2c1ncn2[C@H]1C[C@H](O)[C@@H](CO)O1` [2′-Deoxyadenosine, reference compound]: the “Deaminated to 2′-deoxyinosine” value in the data set with adenosine deaminase (7 min with 0.002 units of enzyme, 50 μM, positive control) turned out to be 59%.

Turning to `Cc1cn([C@H]2C[C@H](N=[N+]=[N-])[C@@H](CO)O2)c(=O)[nH]c1=O` [AZT, 3′-Azido-3′-deoxythymidine], the IC50 in the data set on PBM cells [1] was > 100 µM. Moreover, in [2], the “Bone marrow toxicity, share of the patients” value is “about 5%”.

For the compound `[N-]=[N+]=N[C@H]1C[C@H](n2cnc3c(Cl)nc(N)nc32)O[C@@H]1CO` [Compound 10], the “Conversion to AZG by adenosine deaminase” value with adenosine deaminase is reported as “substantially or completely converted to AZG”. Besides, in the data set on PBM cells [3], the “Conversion to AZG-TP in PBM cells” value is given as “converted to AZG-TP” and the “Detection of the nucleoside analog in the triphosphate (TP) form” value (shortened to “Detection of the nucleoside analog”) was “unable to detect”.

For the compound `[N-]=[N+]=N[C@H]1C[C@H](n2cnc3c(N)nc(N)nc32)O[C@@H]1CO` [Compound 12], in the data set with adenosine deaminase, the “Conversion to AZG by adenosine deaminase” value is listed as “substantially or completely converted to AZG; also recorded: substantially converted to AZG”. Also, the “Conversion to AZG-TP in PBM cells” value in the data set with PBM cells [3] is “converted to AZG-TP”.

As to `COc1nc(N)nc2c1ncn2[C@H]1C[C@H](N=[N+]=[N-])[C@@H](CO)O1` [Compound 17], the “Conversion to AZG by adenosine deaminase” value with adenosine deaminase was “substantially or completely converted to AZG”. In addition, in the data set with PBM cells [3], the “Conversion to AZG-TP in PBM cells” value is given as “converted to AZG-TP” and the “Detection of the nucleoside analog” value is given as “unable to detect”.

With `CN(C)c1nc(N)nc2c1ncn2[C@H]1C[C@H](N=[N+]=[N-])[C@@H](CO)O1` [Compound 18], in data set [4], the IC50 is > 100 µM. Moreover, in the data set “in vitro”, the 50% inhibitory concentration (IC50) was > 100 µM. Also, the “Conversion to AZG by adenosine deaminase” value with adenosine deaminase is “resistant to adenosine deaminase”. In addition, in the data set with PBM cells [3], the “Conversion to AZG-TP in PBM cells” value is “converted to AZG-TP” and the “Detection of the nucleoside analog” value was “unable to detect”.

As to `[N-]=[N+]=N[C@H]1C[C@H](n2cnc3c(NC4CC4)nc(N)nc32)O[C@@H]1CO` [Compound 19], the IC50 (in data set [4]; in the data set “in vitro”) was > 100 µM each time. The “Conversion to AZG by adenosine deaminase” value in the data set with adenosine deaminase is listed as “substantially or completely converted to AZG”. In addition, the “Conversion to AZG-TP in PBM cells” value with PBM cells [3] was “converted to AZG-TP”. Further, in the data set on PBM cells [3], the “Detection of the nucleoside analog” value is “unable to detect”.

Take `C=CCNc1nc(N)nc2c1ncn2[C@H]1C[C@H](N=[N+]=[N-])[C@@H](CO)O1` [Compound 20]: the “Conversion to AZG by adenosine deaminase” value in the data set with adenosine deaminase is on record as “substantially or completely converted to AZG”. Further, in the data set with PBM cells [3], the “Conversion to AZG-TP in PBM cells” value is “converted to AZG-TP” and the “Detection of the nucleoside analog” value is reported as “unable to detect”.

On to `C=CCN(C)c1nc(N)nc2c1ncn2[C@H]1C[C@H](N=[N+]=[N-])[C@@H](CO)O1` [Compound 21], for which the “Toxicity in Vero cells” value in the data set with Vero cells was “increased toxicity”. In the data set on CEM cells, the “Toxicity in CEM cells” value is “increased toxicity”.

With `C#CCNc1nc(N)nc2c1ncn2[C@H]1C[C@H](N=[N+]=[N-])[C@@H](CO)O1` [Compound 22], the “Anti-HIV activity” value in the data set on HIV-1LAI is on record as “significantly less active”. In the data set with PBM, CEM, and Vero cells, the “Cytotoxicity” value was “no toxicity”.

As for `CC(C)(CO)Nc1nc(N)nc2c1ncn2[C@H]1C[C@H](N=[N+]=[N-])[C@@H](CO)O1` [Compound 24], the concentration for half-maximal inhibition (IC50) (in data set [4]; in the data set “in vitro”) was > 100 µM throughout.

For `[N-]=[N+]=N[C@H]1C[C@H](n2cnc3c(NCCO)nc(N)nc32)O[C@@H]1CO` [Compound 26], the IC50 (in data set [4]; in “in vitro”) was > 100 µM each time.

Consider `COc1nc(Cl)nc2c1ncn2[C@H]1C[C@H](N=[N+]=[N-])[C@@H](CO)O1` [Compound 30], for which the IC50 (in [4]; in “in vitro”) was > 100 µM each time.

For the compound `[N-]=[N+]=N[C@H]1C[C@H](n2cnc3c(N)nc(Cl)nc32)O[C@@H]1CO` [Compound 31], the IC50 (in data set [4]; in the data set “in vitro”) was > 100 µM in each case.

Regarding `[N-]=[N+]=N[C@H]1C[C@H](n2cnc3c(NC4CC4)nc(Cl)nc32)O[C@@H]1CO` [Compound 33], the IC50 (in data set [4]; in “in vitro”) was > 100 µM each time.

Regarding `CN(C)c1nc(Cl)nc2c1ncn2[C@H]1C[C@H](N=[N+]=[N-])[C@@H](CO)O1` [Compound 34], the IC50 (in [4]; in the data set “in vitro”) was > 100 µM in each case.

Turning to `[N-]=[N+]=N[C@H]1C[C@H](n2cnc3c(N)nc(F)nc32)O[C@@H]1CO` [Compound 35], in the data set on PBM, CEM, and Vero cells, the “Cytotoxicity” value is recorded as “increase in cytotoxicity”.

`COc1nc(F)nc2c1ncn2[C@H]1C[C@H](N=[N+]=[N-])[C@@H](CO)O1` [Compound 36]: the IC50 (in data set [4]; in the data set “in vitro”) was > 100 µM each time.

For `[N-]=[N+]=N[C@H]1C[C@H](n2cnc3c(Cl)nc(F)nc32)O[C@@H]1CO` [Compound 37], the “Cytotoxicity” value in the data set with PBM, CEM, and Vero cells was “increase in cytotoxicity”.

On to `COc1nc(N)c2ncn([C@H]3C[C@H](N=[N+]=[N-])[C@@H](CO)O3)c2n1` [Compound 38], for which the IC50 (in data set [4]; in “in vitro”) was > 100 µM throughout.

Turning to `COc1nc(OC)c2ncn([C@H]3C[C@H](N=[N+]=[N-])[C@@H](CO)O3)c2n1` [Compound 39], the IC50 (in data set [4]; in the data set “in vitro”) was > 100 µM each time. Further, in the data set with PBM, CEM, and Vero cells, the “No cytotoxicity up to” value is > 100 µM.

For the compound `COc1nc(NC2CC2)c2ncn([C@H]3C[C@H](N=[N+]=[N-])[C@@H](CO)O3)c2n1` [Compound 40], the IC50 (in data set [4]; in “in vitro”) was > 100 µM in each case.
